Test results published in ChEMBL document CHEMBL1157866, “Evaluation of anti-pigmentary effect of synthetic sulfonylamino chalcone” (Eur J Med Chem, 2010).
Active and inactive are the calls of the source. The calls are words filed in the database; no cut-off is given here.

Columns and labels:
[1] = molecular target: T1, Tyrosinase (Agaricus bisporus, UniProt O42713); assay: Competitive inhibition of monophenolase activity of mushroom tyrosinase using as L-tyrosine substrate by Lineweaver-Burke plot analysis
T1 sequence (O42713 whole entry): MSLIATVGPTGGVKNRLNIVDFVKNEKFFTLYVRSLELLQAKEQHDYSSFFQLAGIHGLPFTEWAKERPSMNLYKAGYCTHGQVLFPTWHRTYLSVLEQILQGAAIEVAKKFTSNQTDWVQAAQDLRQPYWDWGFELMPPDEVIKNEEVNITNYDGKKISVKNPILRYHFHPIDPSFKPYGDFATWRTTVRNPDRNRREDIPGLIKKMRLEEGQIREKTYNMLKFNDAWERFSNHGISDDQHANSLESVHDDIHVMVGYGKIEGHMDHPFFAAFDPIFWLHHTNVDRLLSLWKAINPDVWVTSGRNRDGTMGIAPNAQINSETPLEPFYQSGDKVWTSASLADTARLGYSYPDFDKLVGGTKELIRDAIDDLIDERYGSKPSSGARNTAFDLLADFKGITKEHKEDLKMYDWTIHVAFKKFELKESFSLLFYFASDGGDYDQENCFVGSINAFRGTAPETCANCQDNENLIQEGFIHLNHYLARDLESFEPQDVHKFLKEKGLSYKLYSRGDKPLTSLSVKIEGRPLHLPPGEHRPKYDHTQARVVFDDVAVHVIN

[2] = molecular target: T1, Tyrosinase; assay: (§1) Inhibition of monophenolase activity of mushroom tyrosinase using as L-tyrosine substrate by spectrophotometric analysis
[3] = tested on: B16; assay: Inhibition of alpha-MSH-induced melanin production in mouse B16 cells assessed as reduction pigmentation at 20 uM after 48 hrs; assay type: functional, cell-based
[4] = tested on: B16; assay: cells; settings: Mus musculus, B16, 48 h
[5] = tested on: B16; assay: Reduction of alpha-MSH-induced microphthalmia-associated transcription factor expression in mouse B16 cells after 2 days by Western blot analysis; assay type: functional, cell-based
[6] = tested on: B16; assay: Reduction of alpha-MSH-induced tyrosinase related protein 1 expression in mouse B16 cells after 2 days by Western blot analysis; assay type: functional, cell-based
[7] = tested on: Cavia porcellus; assay: Reduction of pigmentation in UV-induced hyperpigmentation brown guinea pig model at 0.3% applied topically bid for 4 weeks; assay type: functional, organism-based
[8] = tested on: B16; assay: Reduction of alpha-MSH-induced tyrosinase related protein 2 expression in mouse B16 cells after 2 days by Western blot analysis; assay type: functional, cell-based
[9] = tested on: B16; assay: Inhibition of alpha-MSH-induced melanin production in mouse B16 cells after 48 hrs
[10] = tested on: B16; assay: Cytotoxicity against mouse B16 cells up to 30 uM after 48 hrs by MTT assay; assay type: cell-based; settings: b16, 48 h
[11] = molecular target: T2, Tyrosinase (Agaricus bisporus) (UniProt O42713); assay: as §1
T2 sequence (whole entry): T1 sequence (O42713 whole entry)

[12] = tested on: B16; assay: Reduction of alpha-MSH-induced tyrosinase expression in mouse B16 cells after 2 days by Western blot analysis; assay type: functional, cell-based
[13] = tested on: Cavia porcellus; assay: Toxicity in UV-induced hyperpigmentation brown guinea pig model at 0.3% applied topically bid for 4 weeks; assay type: organism-based; settings: in vivo, topical_or_ocular, 672 h
[14] = Cytotoxicity against mouse B16 cells at 30 uM after 72 hrs by MTT assay; assay type: cell-based; settings: read-out: Survival
[15] = Cytotoxicity against mouse B16 cells at 10 uM after 72 hrs by MTT assay; assay type: cell-based; settings: read-out: Survival
[16] = tested on: B16; assay: Inhibition of melanin production in mouse B16 cells after 48 hrs; assay type: functional, cell-based
[17] = Cytotoxicity against mouse B16 cells at 20 uM after 72 hrs by MTT assay; assay type: cell-based; settings: read-out: Survival

Row | Compound | Ki [1] [µM] | IC50 [2] [µM] | IC50 [4] [µM] | Activity [11] | Activity [3] | also measured
1 | Cc1ccc(S(=O)(=O)Nc2ccc(C(=O)/C=C/c3ccc(O)cc3)cc2)cc1 | 12.6 | 23.3 | 10.4 | Dose-dependent effect | Active | Activity [5]: Active; Activity [6]: Active; Activity [7]: Active; Activity [8]: Active; Activity [9]: Dose-dependent effect; Activity [10]: Non-toxic; Activity [12]: Active; Activity [13]: Non-toxic; viability at 72 h, 30 µM [14]: 78%; viability at 72 h, 10 µM [15]: 92%; Activity [16]: Active; viability at 72 h, 20 µM [17]: 84%
2 | O=C(/C=C/c1ccc(O)cc1)c1ccc(NS(=O)(=O)c2ccccc2)cc1 | 13.3 | 22.5 | 24.2 | Dose-dependent effect | – | –
3 | O=C(/C=C/c1ccc(O)cc1)c1ccc(NS(=O)(=O)c2ccc(F)cc2)cc1 | 14.9 | 29.1 | 19.8 | Dose-dependent effect | – | –
4 | Nc1ccc(S(=O)(=O)Nc2ccc(C(=O)/C=C/c3ccc(O)cc3)cc2)cc1 | 16.7 | 30.7 | 21.2 | Dose-dependent effect | – | –
5 | O=C(/C=C/c1ccc(O)cc1)c1ccc(NS(=O)(=O)c2ccc(O)cc2)cc1 | 25.2 | 58.8 | 32.1 | Dose-dependent effect | – | –

These reach a lower Ki [1]. Values come first.

Row | Ki [1] [µM] | IC50 [2] [µM] | IC50 [4] [µM] | Activity [11] | Compound | Activity [3] | also measured
6 | 2.9 | 4.8 | 48.7 | – | O=C(/C=C/c1ccc(O)cc1)c1ccc(O)cc1 [4,4'-DIHYDROXYCHALCONE] | Active | –
7 | 11.4 | 15.2 | – | Dose-dependent effect | O=C(/C=C/c1ccc(O)cc1)c1ccc(NS(=O)(=O)c2ccc([N+](=O)[O-])cc2)cc1 | – | –
8 | 3.9 | 8.3 | 28.1 | – | Nc1ccc(C(=O)/C=C/c2ccc(O)cc2)cc1 | Active | –
